What follows are compounds tested on Alternaria solani (assay: Test F: tomato early blight, preventive spray on tomato seedlings). Conditions: 50 ppm, 100 = 100% disease control, 0 = no control.
Type: in vivo
Method in brief: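 Preventive test: one day after the compound spray, seedlings were inoculated with A. solani, incubated saturated at 27 °C for 48 h, then kept at 20 °C for 3 days. Test suspensions contained acetone/water 50/50 with 250 ppm PEG400 surfactant. Visual ratings run from 0 (no control) to 100 (full control).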

| Compound | Test F disease control rating [%] |
| --- | --- |
| Cc1nn(C)c(Nc2c(Cl)cc(F)cc2[N+](=O)[O-])c1-c1ccc(F)cc1F [compound 67] | 33 |
| Cc1nn(C)c(Nc2c(F)cccc2[N+](=O)[O-])c1-c1ccc(Cl)cc1Cl [compound 69] | 99 |
| COc1cc(F)c(-c2c(C)nn(C)c2Nc2c(F)cccc2[N+](=O)[O-])c(F)c1 [compound 70] | 99 |
| CCn1nc(C)c(-c2ccc(F)cc2Cl)c1Nc1c(F)cccc1[N+](=O)[O-] [compound 71] | 98 |
| COc1ccc(-c2c(C)nn(C)c2Nc2ccc(Cl)cc2[N+](=O)[O-])c(Cl)c1 [compound 74] | 85 |
| Cc1nn(C)c(Nc2c(F)cc(F)cc2[N+](=O)[O-])c1-c1c(F)cccc1F [compound 75] | 98 |
| Cc1nn(C)c(Nc2c(Cl)cc(F)cc2[N+](=O)[O-])c1-c1c(F)cccc1F [compound 76] | 0 |
| Cc1nn(C)c(Nc2c(Cl)cccc2[N+](=O)[O-])c1-c1c(F)cccc1F [compound 77] | 9 |
| Cc1nn(C)c(Nc2ccc(Cl)cc2[N+](=O)[O-])c1-c1ccc(F)cc1F [compound 78] | 0 |
| Cc1nn(C)c(Nc2c(Cl)cccc2[N+](=O)[O-])c1-c1ccc(F)cc1F [compound 79] | 0 |
| COc1cc(Cl)c(Nc2c(-c3ccc(F)cc3Cl)c(C)nn2C)c([N+](=O)[O-])c1 [compound 80] | 98 |
| COc1ccc(-c2c(C)nn(C)c2Nc2c(F)cc(Cl)cc2[N+](=O)[O-])c(Cl)c1 [compound 81] | 99 |
| COc1cc(F)c(-c2c(C)nn(C)c2Nc2c(Cl)cc(Cl)cc2[N+](=O)[O-])c(F)c1 [compound 82] | 97 |

Each compound was assayed on Botrytis cinerea (assay: Test E: tomato Botrytis, preventive spray on tomato seedlings). Conditions: 50 ppm, 100 = 100% disease control, 0 = no control.
Type: in vivo
Method in brief: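 Preventive test: seedlings sprayed to run-off with compound in acetone/water (50/50) plus 250 ppm PEG400, inoculated one day later with B. cinerea spores. Held 48 h saturated at 20° C, then 3 days at 24° C; disease control scored visually from 0 to 100 versus controls.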

| Compound | Test E disease control rating [%] |
| --- | --- |
| Cc1nn(C)c(Nc2c(Cl)cc(F)cc2[N+](=O)[O-])c1-c1ccc(F)cc1F [compound 67] | 98 |
| Cc1nn(C)c(Nc2c(F)cccc2[N+](=O)[O-])c1-c1ccc(Cl)cc1Cl [compound 69] | 100 |
| COc1cc(F)c(-c2c(C)nn(C)c2Nc2c(F)cccc2[N+](=O)[O-])c(F)c1 [compound 70] | 99 |
| CCn1nc(C)c(-c2ccc(F)cc2Cl)c1Nc1c(F)cccc1[N+](=O)[O-] [compound 71] | 99 |
| COc1ccc(-c2c(C)nn(C)c2Nc2ccc(Cl)cc2[N+](=O)[O-])c(Cl)c1 [compound 74] | 99 |
| Cc1nn(C)c(Nc2c(F)cc(F)cc2[N+](=O)[O-])c1-c1c(F)cccc1F [compound 75] | 57 |
| Cc1nn(C)c(Nc2c(Cl)cc(F)cc2[N+](=O)[O-])c1-c1c(F)cccc1F [compound 76] | 87 |
| Cc1nn(C)c(Nc2c(Cl)cccc2[N+](=O)[O-])c1-c1c(F)cccc1F [compound 77] | 72 |
| Cc1nn(C)c(Nc2ccc(Cl)cc2[N+](=O)[O-])c1-c1ccc(F)cc1F [compound 78] | 68 |
| Cc1nn(C)c(Nc2c(Cl)cccc2[N+](=O)[O-])c1-c1ccc(F)cc1F [compound 79] | 98 |
| COc1cc(Cl)c(Nc2c(-c3ccc(F)cc3Cl)c(C)nn2C)c([N+](=O)[O-])c1 [compound 80] | 95 |
| COc1ccc(-c2c(C)nn(C)c2Nc2c(F)cc(Cl)cc2[N+](=O)[O-])c(Cl)c1 [compound 81] | 95 |
| COc1cc(F)c(-c2c(C)nn(C)c2Nc2c(Cl)cc(Cl)cc2[N+](=O)[O-])c(F)c1 [compound 82] | 96 |

These compounds were tested on Septoria tritici (assay: Test A: wheat leaf blotch, preventive spray on wheat seedlings). Conditions: 50 ppm, 100 = 100% disease control, 0 = no control.
Type: in vivo
Method in brief: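 Preventive test: one day after spraying seedlings to run-off (concentrations in ppm; acetone/water, 250 ppm PEG400), Septoria tritici spores applied. Scored after 48 h humid incubation at 24 °C plus 17 days at 20 °C, as percent disease control versus untreated controls (100 = full control).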

| Compound | Test A disease control rating [%] |
| --- | --- |
| Cc1nn(C)c(Nc2c(Cl)cc(F)cc2[N+](=O)[O-])c1-c1ccc(F)cc1F [compound 67] | 100 |
| Cc1nn(C)c(Nc2c(F)cccc2[N+](=O)[O-])c1-c1ccc(Cl)cc1Cl [compound 69] | 100 |
| COc1cc(F)c(-c2c(C)nn(C)c2Nc2c(F)cccc2[N+](=O)[O-])c(F)c1 [compound 70] | 100 |
| CCn1nc(C)c(-c2ccc(F)cc2Cl)c1Nc1c(F)cccc1[N+](=O)[O-] [compound 71] | 100 |
| COc1ccc(-c2c(C)nn(C)c2Nc2ccc(Cl)cc2[N+](=O)[O-])c(Cl)c1 [compound 74] | 99 |
| Cc1nn(C)c(Nc2c(F)cc(F)cc2[N+](=O)[O-])c1-c1c(F)cccc1F [compound 75] | 100 |
| Cc1nn(C)c(Nc2c(Cl)cc(F)cc2[N+](=O)[O-])c1-c1c(F)cccc1F [compound 76] | 100 |
| Cc1nn(C)c(Nc2c(Cl)cccc2[N+](=O)[O-])c1-c1c(F)cccc1F [compound 77] | 100 |
| Cc1nn(C)c(Nc2ccc(Cl)cc2[N+](=O)[O-])c1-c1ccc(F)cc1F [compound 78] | 100 |
| Cc1nn(C)c(Nc2c(Cl)cccc2[N+](=O)[O-])c1-c1ccc(F)cc1F [compound 79] | 100 |
| COc1cc(Cl)c(Nc2c(-c3ccc(F)cc3Cl)c(C)nn2C)c([N+](=O)[O-])c1 [compound 80] | 100 |
| COc1ccc(-c2c(C)nn(C)c2Nc2c(F)cc(Cl)cc2[N+](=O)[O-])c(Cl)c1 [compound 81] | 100 |
| COc1cc(F)c(-c2c(C)nn(C)c2Nc2c(Cl)cc(Cl)cc2[N+](=O)[O-])c(F)c1 [compound 82] | 100 |

Each compound was assayed on Puccinia recondita f. sp. tritici (assay: Test B: wheat leaf rust, preventive spray on wheat seedlings). Conditions: 50 ppm, 100 = 100% disease control, 0 = no control.
Type: in vivo
Method in brief: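 Preventive test: compound in acetone/water 50/50 with 250 ppm PEG400 was sprayed onto wheat seedlings one day before inoculation with leaf rust spores. After 24 h in saturated air and 7 days in a growth chamber, both at 20 °C, disease control was scored from 0 to 100 against controls.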

| Compound | Test B disease control rating [%] |
| --- | --- |
| Cc1nn(C)c(Nc2c(Cl)cc(F)cc2[N+](=O)[O-])c1-c1ccc(F)cc1F [compound 67] | 100 |
| Cc1nn(C)c(Nc2c(F)cccc2[N+](=O)[O-])c1-c1ccc(Cl)cc1Cl [compound 69] | 100 |
| COc1cc(F)c(-c2c(C)nn(C)c2Nc2c(F)cccc2[N+](=O)[O-])c(F)c1 [compound 70] | 100 |
| CCn1nc(C)c(-c2ccc(F)cc2Cl)c1Nc1c(F)cccc1[N+](=O)[O-] [compound 71] | 100 |
| COc1ccc(-c2c(C)nn(C)c2Nc2ccc(Cl)cc2[N+](=O)[O-])c(Cl)c1 [compound 74] | 86 |
| Cc1nn(C)c(Nc2c(F)cc(F)cc2[N+](=O)[O-])c1-c1c(F)cccc1F [compound 75] | 99 |
| Cc1nn(C)c(Nc2c(Cl)cc(F)cc2[N+](=O)[O-])c1-c1c(F)cccc1F [compound 76] | 99 |
| Cc1nn(C)c(Nc2c(Cl)cccc2[N+](=O)[O-])c1-c1c(F)cccc1F [compound 77] | 100 |
| Cc1nn(C)c(Nc2ccc(Cl)cc2[N+](=O)[O-])c1-c1ccc(F)cc1F [compound 78] | 89 |
| Cc1nn(C)c(Nc2c(Cl)cccc2[N+](=O)[O-])c1-c1ccc(F)cc1F [compound 79] | 100 |
| COc1cc(Cl)c(Nc2c(-c3ccc(F)cc3Cl)c(C)nn2C)c([N+](=O)[O-])c1 [compound 80] | 100 |
| COc1ccc(-c2c(C)nn(C)c2Nc2c(F)cc(Cl)cc2[N+](=O)[O-])c(Cl)c1 [compound 81] | 99 |
| COc1cc(F)c(-c2c(C)nn(C)c2Nc2c(Cl)cc(Cl)cc2[N+](=O)[O-])c(F)c1 [compound 82] | 100 |

Each compound was assayed on Blumeria graminis f. sp. tritici (assay: Test C: wheat powdery mildew, preventive spray on wheat seedlings). Conditions: 50 ppm, 100 = 100% disease control, 0 = no control.
Type: in vivo
From the text: General protocol for preparing test suspensions for Tests A-F: the test compounds were first dissolved in acetone in an amount equal to 3% of the final volume and then suspended at the desired concentration (in ppm) in acetone and purified water (50/50 mix by volume) containing 250 ppm of the surfactant PEG400 (polyhydric alcohol esters). The resulting test suspensions were then used in Tests A-F.
The test suspension was sprayed to the point of run-off on wheat seedlings. The following day the seedlings were inoculated with a spore dust of Blumeria graminis f. sp. tritici, (also known as Erysiphe graminis f. sp. tritici, the causal agent of wheat powdery mildew) and incubated in a growth chamber at 20° C. for 8 days, after which time visual disease ratings were made.
A rating of 100 indicates 100% disease control and a rating of 0 indicates no disease control (relative to the controls). A dash (−) indicates the compound was not tested.

| Compound | Test C disease control rating [%] |
| --- | --- |
| Cc1nn(C)c(Nc2c(Cl)cc(F)cc2[N+](=O)[O-])c1-c1ccc(F)cc1F [compound 67] | 89 |
| Cc1nn(C)c(Nc2c(F)cccc2[N+](=O)[O-])c1-c1ccc(Cl)cc1Cl [compound 69] | 97 |
| COc1cc(F)c(-c2c(C)nn(C)c2Nc2c(F)cccc2[N+](=O)[O-])c(F)c1 [compound 70] | 99 |
| CCn1nc(C)c(-c2ccc(F)cc2Cl)c1Nc1c(F)cccc1[N+](=O)[O-] [compound 71] | 99 |
| COc1ccc(-c2c(C)nn(C)c2Nc2ccc(Cl)cc2[N+](=O)[O-])c(Cl)c1 [compound 74] | 81 |
| Cc1nn(C)c(Nc2c(F)cc(F)cc2[N+](=O)[O-])c1-c1c(F)cccc1F [compound 75] | 90 |
| Cc1nn(C)c(Nc2c(Cl)cc(F)cc2[N+](=O)[O-])c1-c1c(F)cccc1F [compound 76] | 95 |
| Cc1nn(C)c(Nc2c(Cl)cccc2[N+](=O)[O-])c1-c1c(F)cccc1F [compound 77] | 95 |
| Cc1nn(C)c(Nc2ccc(Cl)cc2[N+](=O)[O-])c1-c1ccc(F)cc1F [compound 78] | 95 |
| Cc1nn(C)c(Nc2c(Cl)cccc2[N+](=O)[O-])c1-c1ccc(F)cc1F [compound 79] | 91 |
| COc1cc(Cl)c(Nc2c(-c3ccc(F)cc3Cl)c(C)nn2C)c([N+](=O)[O-])c1 [compound 80] | 97 |
| COc1ccc(-c2c(C)nn(C)c2Nc2c(F)cc(Cl)cc2[N+](=O)[O-])c(Cl)c1 [compound 81] | 89 |
| COc1cc(F)c(-c2c(C)nn(C)c2Nc2c(Cl)cc(Cl)cc2[N+](=O)[O-])c(F)c1 [compound 82] | 58 |

What follows are compounds tested on Phakopsora pachyrhizi (assay: Test D: Asian soybean rust, preventive spray on soybean seedlings). Conditions: 50 ppm, 100 = 100% disease control, 0 = no control.
Type: in vivo
Method in brief: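 Compounds in acetone/water (50/50) with 250 ppm PEG400, dosed in ppm, sprayed to run-off on soybean seedlings; inoculated with P. pachyrhizi spores next day. Held 24 h at 22 °C in saturated air, then 8 days at 22 °C; visual rating of disease control, 0–100, relative to untreated controls.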

| Compound | Test D disease control rating [%] |
| --- | --- |
| Cc1nn(C)c(Nc2c(Cl)cc(F)cc2[N+](=O)[O-])c1-c1ccc(F)cc1F [compound 67] | 69 |
| Cc1nn(C)c(Nc2c(F)cccc2[N+](=O)[O-])c1-c1ccc(Cl)cc1Cl [compound 69] | 77 |
| COc1cc(F)c(-c2c(C)nn(C)c2Nc2c(F)cccc2[N+](=O)[O-])c(F)c1 [compound 70] | 84 |
| CCn1nc(C)c(-c2ccc(F)cc2Cl)c1Nc1c(F)cccc1[N+](=O)[O-] [compound 71] | 82 |
| COc1ccc(-c2c(C)nn(C)c2Nc2ccc(Cl)cc2[N+](=O)[O-])c(Cl)c1 [compound 74] | 74 |
| Cc1nn(C)c(Nc2c(F)cc(F)cc2[N+](=O)[O-])c1-c1c(F)cccc1F [compound 75] | 0 |
| Cc1nn(C)c(Nc2c(Cl)cc(F)cc2[N+](=O)[O-])c1-c1c(F)cccc1F [compound 76] | 25 |
| Cc1nn(C)c(Nc2c(Cl)cccc2[N+](=O)[O-])c1-c1c(F)cccc1F [compound 77] | 73 |
| Cc1nn(C)c(Nc2ccc(Cl)cc2[N+](=O)[O-])c1-c1ccc(F)cc1F [compound 78] | 0 |
| Cc1nn(C)c(Nc2c(Cl)cccc2[N+](=O)[O-])c1-c1ccc(F)cc1F [compound 79] | 44 |
| COc1cc(Cl)c(Nc2c(-c3ccc(F)cc3Cl)c(C)nn2C)c([N+](=O)[O-])c1 [compound 80] | 50 |
| COc1ccc(-c2c(C)nn(C)c2Nc2c(F)cc(Cl)cc2[N+](=O)[O-])c(Cl)c1 [compound 81] | 0 |
| COc1cc(F)c(-c2c(C)nn(C)c2Nc2c(Cl)cc(Cl)cc2[N+](=O)[O-])c(F)c1 [compound 82] | 59 |
